PubChem BioAssay AID1645848
Converted amounts (≈) assume the structure as drawn.

Conditions: buffer; pH 7.4; 6.0 h; 150.0 µM
With `O=C(Nc1nc(-c2ccccc2)cs1)c1ccccc1-n1cnnn1` the solubility kinetic was < 1 µg/mL. With `Cc1ccc(S(=O)(=O)Nc2cnccc2C(=O)Nc2nc(C(=O)O)cs2)cc1` the solubility kinetic was > 62 µg/mL. Work on `Cn1cc(Cl)c(C2N=C(Nc3nc4ccccc4o3)NC3=C2C(=O)CCC3)n1` (centres undefined) yielded a solubility kinetic of 36.4 µg/mL (≈ 91.7 µM). For `Cc1ccc(S(=O)(=O)N2CCN(C(=O)c3cc4c(s3)CCC4)CC2)cc1`, the solubility kinetic was < 1 µg/mL. In the case of `COc1cc(C2c3c(oc4cc(C)c(C)cc4c3=O)C(=O)N2CCCN2CCOCC2)ccc1O` (centres undefined), the solubility kinetic is reported as > 71 µg/mL. For `CC1(C)C(=O)NC2=C1C(=O)C(=O)c1ccccc12`, the solubility kinetic was > 36 µg/mL. In the case of `Cc1ccc(S(=O)(=O)Nc2cnccc2C(=O)NCc2ccccc2)cc1`, the solubility kinetic is reported as > 56 µg/mL. For `Fc1ccc(Nc2nc(-c3ccncc3)nc3ccccc23)cc1F`, the solubility kinetic was < 1 µg/mL. In the case of `N#Cc1cc(NC(=O)Nc2nnc(-c3ccncc3)s2)ccc1-c1cn[nH]c1`, the solubility kinetic is reported as < 1 µg/mL. For `COc1ccc(-c2nc(CS(=O)CC(=O)N3CCC4(CC3)OCCO4)c(C)o2)cc1` (centres undefined), the solubility kinetic was > 64 µg/mL. In the case of `COc1ccccc1C(=O)Nc1nnc(SCc2cc(=O)c3ccccc3[nH]2)s1`, the solubility kinetic is reported as < 1 µg/mL. For `NC(=O)C(=O)N/N=C/c1ccc([N+](=O)[O-])o1`, the solubility kinetic was > 33 µg/mL. For `OC1(c2ccc(Cl)cc2)CCN(Cc2c[nH]c3ccccc23)CC1`, the solubility kinetic was > 50 µg/mL. In the case of `O=C(Nc1cn[nH]c1-c1nc2ccc(CN3CCOCC3)cc2[nH]1)NC1CC1`, the solubility kinetic is reported as > 38 µg/mL. Work on `Cc1ccnc(NC(=S)N2CCN(c3ncc(C(F)(F)F)cc3Cl)CC2)c1` yielded a solubility kinetic of 12 µg/mL (≈ 29 µM). `O=C1Nc2cc(Cl)ccc2/C1=C\c1cc(Cl)c(O)c(Cl)c1` gave a solubility kinetic of 5.95 µg/mL (≈ 17.5 µM). With `O=C1C(SCCO)=C(SCCO)C(=O)c2ccccc21` the solubility kinetic was > 31 µg/mL. With `O=S(=O)(c1ccccc1)c1nnn2c1nc(NCc1cccs1)c1sccc12` the solubility kinetic was < 1 µg/mL. In the case of `NC(=O)C1CCN(c2nc(-c3ccccc3)cs2)CC1`, the solubility kinetic is reported as > 42 µg/mL. For `O=C(Nc1nc(-c2ccccc2)cs1)c1ccncc1NS(=O)(=O)c1ccc2ccccc2c1`, the solubility kinetic was < 1 µg/mL. For `Cc1cccc(N(C)c2nc3ccccc3c3nnc(C)n23)c1`, the solubility kinetic was > 45 µg/mL. For `COc1ccc(CCN2CCC(Nc3nc4ccccc4n3Cc3ccc(F)cc3)CC2)cc1`, the solubility kinetic was 54.6 µg/mL (≈ 119 µM). For `O=C(O)c1ccnc2cc(-c3nc4ccccc4n3CCN3CCCCC3)sc12`, the solubility kinetic was 6.93 µg/mL (≈ 17.1 µM). For `Cc1ccc(NS(=O)(=O)c2cccc(C(=O)O)c2)cc1S(=O)(=O)N1CCOCC1`, the solubility kinetic was > 65 µg/mL. For `NC(=O)C1CCN(c2ncc(-c3cccc(N4CCCC4)c3)s2)CC1`, the solubility kinetic was 11.6 µg/mL (≈ 32.6 µM). With `O=C1Nc2ccc(-c3cccc(C(F)(F)F)c3)cc2C(=O)N2CCN(C(=O)COc3ccccc3)C[C@H]12` the solubility kinetic was < 1 µg/mL. For `O=S(=O)(Nc1cccc2ccccc12)c1ccc(NCc2cccc(Cl)c2O)cc1`, the solubility kinetic was < 1 µg/mL. With `O=C1CCCC2=C1C(c1[nH]ncc1Cl)N=C(Nc1nc3cccc(Cl)c3o1)N2` (centres undefined) the solubility kinetic was < 1 µg/mL. Work on `O=C(NC1CC1)c1nc(-c2cccnc2)c2cnccn12` yielded a solubility kinetic of 31.6 µg/mL (≈ 113 µM). `COCCCNC(=O)c1cc2cc(S(=O)(=O)N(C)C)ccc2n1C` gave a solubility kinetic of 42.6 µg/mL (≈ 120 µM). Work on `CC(=O)Nc1ncc(S(=O)(=O)N2CCOCC2)s1` yielded a solubility kinetic of 26.6 µg/mL (≈ 91.1 µM). For `Oc1c(C(Nc2nccs2)c2ccc(C(F)(F)F)cc2)ccc2cccnc12` (centres undefined), the solubility kinetic was < 1 µg/mL. For `O=C1Cc2cc(C(=O)c3ccco3)ccc2N1`, the solubility kinetic was > 34 µg/mL. With `CC(=O)NC(c1cccs1)c1cc(Br)c2cccnc2c1O` (centres undefined) the solubility kinetic was < 1 µg/mL. `Cn1nnnc1Sc1ncnc2scc(Br)c12` gave a solubility kinetic of 1.27 µg/mL (≈ 3.85 µM). With `Cc1sc(NC(=O)Cc2ccc3c(c2)OCO3)nc1-c1ccc2c(c1)CCN2` the solubility kinetic was < 1 µg/mL. For `O=C(NC1CC1)C1CCCN1C(=O)c1cccc(-c2ccccn2)c1` (centres undefined), the solubility kinetic was > 74 µg/mL. Work on `Cc1ccc(C(=O)N2CCc3c(nc4cc(-c5ccccc5)[nH]n4c3=O)C2)cn1` yielded a solubility kinetic of 8.67 µg/mL (≈ 22.5 µM). For `COc1ccc(-c2nc(-c3c(C)noc3C)cc3c2cc(C)n3CCN(C)C)cc1OC`, the solubility kinetic was > 96 µg/mL. In the case of `Cc1nn(-c2ccccc2)c2nc(C3CC3)cc(C(=O)Nc3ccc(F)cc3)c12`, the solubility kinetic is reported as < 1 µg/mL. `O=C1c2ccccc2-n2c1nc1ccccc1c2=O` showed a solubility kinetic of 8.45 µg/mL (≈ 34 µM). For `CCOc1ccc(CCNC(=O)c2cc3sccc3n2Cc2ccc(Cl)c(F)c2)cc1OCC`, the solubility kinetic was < 1 µg/mL. With `Cc1cc(C)nc(NS(=O)(=O)c2ccc(NC(=S)NC(=O)COc3ccc(Br)cc3Cl)cc2)n1` the solubility kinetic was > 100 µg/mL. In the case of `CCOC(=O)c1ccc(NC(=O)N2Cc3[nH]cnc3C[C@H]2c2nc(C(C)C)no2)cc1`, the solubility kinetic is reported as > 63 µg/mL. With `CN(C)C(=O)c1ccc(-c2cc[nH]c(=O)c2N)cc1` the solubility kinetic was > 38 µg/mL. With `CCOc1ccc(CCNC(=O)c2cc3sccc3n2Cc2cccc(C)c2)cc1OCC` the solubility kinetic was < 1 µg/mL. With `COC(=N)c1nc2ccc3ncnc(Nc4ccc(F)cc4Br)c3c2s1` the solubility kinetic was < 1 µg/mL. Compound `Oc1ccc(CNc2ccc(C(F)(F)F)cc2F)c2cccnc12` has a solubility kinetic of 6.45 µg/mL (≈ 19.2 µM). For `CC/C=C\C/C=C\C/C=C\C/C=C\C/C=C\C/C=C\CCC(=O)NCCO`, the solubility kinetic was > 55 µg/mL. Work on `Cc1ccc(-c2cc(C(=O)Nc3ncco3)c3ccccc3n2)cc1C` yielded a solubility kinetic of 4.24 µg/mL (≈ 12.3 µM). `CCOc1ccc(CNC(=O)CCCn2nc(C)c3c(C)n(-c4ccc(C)cc4)nc3c2=O)cc1` showed a solubility kinetic of 1.48 µg/mL (≈ 3.12 µM). Work on `Cc1cc(C)nc(NC(=S)N2CCN(c3ccc(C(F)(F)F)cc3Cl)CC2)c1` yielded a solubility kinetic of 3.08 µg/mL (≈ 7.19 µM). `O=C(NCCc1cnc[nH]1)c1ccc(-c2ncc3cnc(-c4cccc(F)c4)cn23)cc1` gave a solubility kinetic of 33.7 µg/mL (≈ 79.1 µM). For `c1cc(-c2cc(-c3ccncc3)c3cncn3c2)c2[nH]ccc2c1`, the solubility kinetic was < 1 µg/mL. Compound `Cc1cccc(C)c1C(=O)Nc1cccc([S+](=O)([O-])N(C)C)c1` has a solubility kinetic of 41.4 µg/mL (≈ 124 µM). With `O=S(=O)(Nc1cccc2ccccc12)c1ccc(NCc2ccc(Br)cc2O)cc1` the solubility kinetic was < 1 µg/mL. In the case of `COC(=O)CNC(=O)c1nc(-c2ccc(Cl)nc2)c2cnccn12`, the solubility kinetic is reported as > 61 µg/mL. `CC(C)C(=O)N1CCc2ccc(OCc3nc(C(=O)N4CCCC4)co3)cc2C1c1cccc(F)c1` (centres undefined) gave a solubility kinetic of 32.9 µg/mL (≈ 66.9 µM). For `CCNC(=O)c1noc(-c2cc(C(C)C)c(O)cc2O)c1-c1ccc(CN2CCOCC2)cc1`, the solubility kinetic was > 69 µg/mL. With `CCCCCn1c(CCCNC(=O)c2ccccc2OC)nc2ccccc21` the solubility kinetic was 32.3 µg/mL (≈ 85.2 µM). For `COC12C(COC(N)=O)C3=C(C(=O)C(C)=C(N)C3=O)N1CC1C2N1C` (centres undefined), the solubility kinetic was > 51 µg/mL. Compound `O=C(COc1ccccc1)NCC(c1cccs1)S(=O)(=O)c1ccc(Cl)cc1` (centres undefined) has a solubility kinetic of 3.83 µg/mL (≈ 8.79 µM). For `CC(=O)c1cccc(-c2csc(N3CCC(C(N)=O)CC3)n2)c1`, the solubility kinetic was > 49 µg/mL. For `O=C1/C(=C\c2ccccc2)C[C@@]2(O)C3Cc4ccc(O)c5c4[C@@]2(CCN3CC2CC2)[C@H]1O5`, the solubility kinetic was > 42 µg/mL. In the case of `c1ccc2c(Nc3ccn[nH]3)nc(-c3ccncc3)nc2c1`, the solubility kinetic is reported as < 1 µg/mL. With `CN1CCN(Cc2ccc(-c3ccc(C(C)(C)C#N)cc3)nc2)CC1` the solubility kinetic was > 49 µg/mL. For `CN(C)c1cccc(-c2nccc(N3CCC(C(N)=O)CC3)n2)c1`, the solubility kinetic was > 48 µg/mL. With `Cc1cc(C)cc(C(=O)Nc2ccc3c(N4CCCC4)ncnc3c2)c1` the solubility kinetic was < 1 µg/mL. For `Oc1ccc(Nc2nc(-c3ccncc3)nc3ccccc23)cc1F`, the solubility kinetic was < 1 µg/mL. For `Cc1ccc(Nc2nc(C)c(NC(=O)c3ccc(C)cc3)c(Nc3ccc(C)cc3)n2)cc1`, the solubility kinetic was < 1 µg/mL. In the case of `COc1cccc(-c2nc(-c3c(C)noc3C)cc3[nH]c(C)cc23)c1OC`, the solubility kinetic is reported as 20.4 µg/mL (≈ 56.2 µM). For `FC(F)(F)c1cccc(Nc2ccc(CNc3nc(-c4ccccc4C(F)(F)F)nc4ccccc34)cc2)c1`, the solubility kinetic was < 1 µg/mL. For `Cc1cccc(S(=O)(=O)c2cn(Cc3ccccc3)c3cc(N4CCCC(C)C4)c(F)cc3c2=O)c1` (centres undefined), the solubility kinetic was < 1 µg/mL. With `CCOc1ccc(CCNC(=O)c2cc3sccc3n2C(C)C)cc1OCC` the solubility kinetic was 1.62 µg/mL (≈ 4.05 µM).
